Measurements published in patent publication US10172814B2, “Substituted pyridyl-cycloalkyl-carboxylic acids, compositions containing them and medical uses thereof” (BAYER PHARMA AKTIENGESELLSCHAFT, priority 2014, dated 2019).

Molecular target: human PTGES (Homo sapiens (Human), UniProt O14684)
Assay: Human PTGES biochemical enzyme inhibition assay (conversion of PGH2 to PGE2, TR-FRET)
Conditions: Enzymatic conversion of PGH2 to PGE2; read-out: Human PTGES IC50
Description: Human PTGES Biochemical Enzyme Inhibition Assay:
PTGES (Microsomal prostaglandin E synthase 1) is an enzyme that converts prostaglandin H2 (PGH2) to prostaglandin E2 (PGE2) in the presence of reduced glutathione (GSH).
Recombinant proteins (human isoforms) of PTGES containing a FLAG tag, expressed in baculovirus infected insect cells (Hi-5) and purified by affinity chromatography was used as enzyme in the assay. Substrate was prostaglandin H2 (Cayman Chemicals).
4 ul of a solution of human PTGES in assay buffer [100 mM sodium phosphate pH 7.2, 2.5 mM Glutathion reduced, 1 mM EDTA, 0.01% BSA, 0.4 mM DTT, 0.15 mM n-dodecylmaltoside] was added to the well containing test compound and incubated for 15-20 minutes to allow binding of the compound to the enzyme prior to the enzymatic reaction. The reaction was started by addition of 1 ul of an ice cold solution containing PGH2 (40 nM in assay buffer resulting in a final concentration of 8 nM PGH2 in the assay). […] The concentration of each isoform of PTGES was adapted to the activity of the respective enzyme preparation to maintain linear reaction properties within the reaction time. […] The reaction was stopped by addition of 1 ul of a solution containing 15 mM SnCl2 and 400 mM KF in water. SnCl2 converts the remaining unstable PGH2 to stable PGF2alpha. Then, 3 ul of the a first detection solution containing PGE2-D2 (Cisbio Bioassays, TR-FRET reagent, diluted according to the manufacturer's recommendation, typically 1:20 in reconstitution buffer) was added. […] The resulting mix was incubated overnight at 4° C. to allow the formation of a complex of PGE2 and the detection reagents. […] Dilution series were made prior to the assay in a 100 fold concentrated form by serial dilution. IC50 values were calculated by 4-Parameter fitting.

human PTGES, sequence (O14684 whole entry): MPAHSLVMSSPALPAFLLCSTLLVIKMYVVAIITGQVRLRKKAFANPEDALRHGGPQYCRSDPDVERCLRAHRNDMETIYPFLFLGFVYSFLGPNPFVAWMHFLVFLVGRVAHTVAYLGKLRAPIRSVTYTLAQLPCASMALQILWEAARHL

SMILES | IC50
Cc1c(NC(=O)C(c2ccc(-c3cncc(C(F)(F)F)c3)cc2)C2CCCC2)cccc1OCC(=O)O (single isomer, unassigned; (+)) [Example 35, (+) {3-[(Cyclopentyl{4-[5-(trifluoromethyl)pyridin-3-yl]phenyl}acetyl)amino]-2-methylphenoxy}acetic acid] | 3730 nM
Cc1c(NC(=O)C(c2ccc(-c3cncc(Cl)c3)c(F)c2)C2CCCC2)cccc1C(C)CC(=O)O (single isomer, unassigned; stereoisomer 1) [Example 126, 3-[3-({[4-(5-Chloropyridin-3-yl)-3-fluorophenyl](cyclopentyl)acetyl}amino)-2-methylphenyl]butanoic acid, Stereoisomer 1] | 646 nM
Cc1c(NC(=O)C(c2ccc(-c3cncc(C(F)(F)F)c3)c(F)c2)C2CCCC2)cccc1C(C)CC(=O)O (single isomer, unassigned; stereoisomer 4) [Example 119, 3-{3-[(Cyclopentyl{3-fluoro-4-[5-(trifluoromethyl)pyridin-3-yl]phenyl}acetyl)amino]-2-methylphenyl}butanoic acid, Stereoisomer 4] | 1060 nM
Cc1c(CCC(=O)O)cccc1NC(=O)C(c1ccc(-c2ccc(C#N)nc2)cc1)C1CCCC1 (racemic) [Example 7, (R/S) 3-[3-({[4-(6-Cyanopyridin-3-yl)phenyl](cyclopentyl)acetyl}amino)-2-methylphenyl]propanoic acid] | 3160 nM
Cc1ncc(-c2ccc([C@H](C(=O)Nc3cccc(CCC(=O)O)c3C)C3CCCC3)cc2)cc1C(F)(F)F [Example 192, 3-(3-{[(2R)-2-cyclopentyl-2-{4-[6-methyl-5-(trifluoromethyl)pyridin-3-yl]phenyl}acetyl]amino}-2-methylphenyl)propanoic acid] | 13.5 nM
Cc1cc(-c2ccc(C(C(=O)Nc3cccc(CC(C)C(=O)O)c3C)C3CCCC3)cc2)cnc1C (stereo not shown) [Example 78, (2R/2S)-3-[3-({(2R/2S)-2-Cyclopentyl-2-[4-(5,6-dimethylpyridin-3-yl)phenyl]acetyl}amino)-2-methylphenyl]-2-methylpropanoic acid] | 118 nM
Cc1c(NC(=O)C(c2ccc(-c3cncc(F)c3)cc2)C2CCCC2)cccc1C(C)CC(=O)O (mixture of isomers) [Example 95, (3R/S)-3-[3-({(2R/S)-2-Cyclopentyl-2-[4-(5-fluoropyridin-3-yl)phenyl]acetyl}amino)-2-methylphenyl]butanoic acid] | 41.7 nM
Cc1ncc(-c2ccc(C(C(=O)Nc3cccc(C(C)CC(=O)O)c3C)C3CCCC3)cc2F)cc1Cl (single isomer, unassigned; stereoisomer 1) [Example 121, 3-[3-({[4-(5-Chloro-6-methylpyridin-3-yl)-3-fluorophenyl](cyclopentyl)acetyl}amino)-2-methylphenyl]butanoic acid, Stereoisomer 1] | 382 nM
CCOc1cncc(-c2ccc(C(C(=O)Nc3cccc(C4CC4C(=O)O)c3C)C3CCCC3)cc2)c1 (stereo not shown) [Example 155, 2-[3-({2-cyclopentyl-2-[4-(5-ethoxypyridin-3-yl)phenyl]acetyl}amino)-2-methylphenyl]cyclopropanecarboxylic acid] | 158 nM
Cc1c(CCC(=O)O)cccc1NC(=O)C(c1ccc(-c2cncc(F)c2)cc1)C1CCC1 (racemic) [Example 60, (R/S) 3-[3-({Cyclobutyl[4-(5-fluoropyridin-3-yl)phenyl]acetyl}amino)-2-methylphenyl]propanoic acid] | 478 nM
Cc1ncc(-c2ccc(C(C(=O)Nc3cccc(CC(C)C(=O)O)c3C)C3CCCC3)cc2)cc1Cl (single isomer, unassigned; stereoisomer 1) [Example 83, 3-[3-({[4-(5-Chloro-6-methylpyridin-3-yl)phenyl](cyclopentyl)acetyl}amino)-2-methylphenyl]-2-methylpropanoic acid, Stereoisomer 1] | 11700 nM
Cc1c(CCC(=O)O)cccc1NC(=O)C(c1ccc(-c2cncc(Cl)c2)cc1)C1CC1 (racemic) [Example 31, (R/S) 3-[3-({[4-(5-Chloropyridin-3-yl)phenyl](cyclopropyl)acetyl}amino)-2-methylphenyl]propanoic acid] | 443 nM
Cc1c(CCC(=O)O)cccc1NC(=O)C(c1ccc(-c2cncc(C(F)(F)F)c2)c(F)c1)C1CCC1 (single isomer, unassigned; (-)) [Example 208, (−) 3-{3-[(cyclobutyl{3-fluoro-4-[5-(trifluoromethyl)pyridin-3-yl]phenyl}acetyl)amino]-2-methylphenyl}propanoic acid, Single Enantiomer] | 28.1 nM
Cc1c(CCC(=O)O)cccc1NC(=O)C(c1ccc(-c2cncc(OC(C)C)c2)c(F)c1)C1CCC1 (single isomer, unassigned; (-)) [Example 209, (−) 3-[3-({cyclobutyl[3-fluoro-4-(5-isopropoxypyridin-3-yl)phenyl]acetyl}amino)-2-methylphenyl]propanoic acid, Single Enantiomer] | 39.3 nM
Cc1c(CCC(=O)O)cccc1NC(=O)C(c1ccc(-c2cncc(CC(F)(F)F)c2)c(F)c1)C1CCCC1 (single isomer, unassigned; (-)) [Example 196, (−) 3-{3-[(cyclopentyl{3-fluoro-4-[5-(2,2,2-trifluoroethyl)pyridin-3-yl]phenyl}acetyl)amino]-2-methylphenyl}propanoic acid, Single Enantiomer] | 74.7 nM
Cc1c(CC(C)C(=O)O)cccc1NC(=O)C(c1ccc(-c2cncc(C(F)(F)F)c2)cc1)C1CCCC1 (single isomer, unassigned; stereoisomer 4) [Example 72, 3-{3-[(Cyclopentyl{4-[5-(trifluoromethyl)pyridin-3-yl]phenyl}acetyl)amino]-2-methylphenyl}-2-methylpropanoic acid, Stereoisomer 4] | 71 nM
Cc1ncc(-c2ccc(C(C(=O)Nc3cccc(CC(C)C(=O)O)c3C)C3CCCC3)cc2)cc1Cl (single isomer, unassigned; stereoisomer 2) [Example 84, 3-[3-({[4-(5-Chloro-6-methylpyridin-3-yl)phenyl](cyclopentyl)acetyl}amino)-2-methylphenyl]-2-methylpropanoic acid, Stereoisomer 2] | 41.1 nM
Cc1c(NC(=O)C(c2ccc(-c3cncc(C(F)(F)F)c3)cc2)C2CCCC2)cccc1C(C)CC(=O)O (mixture of isomers) [Example 91, (3R/S)-3-(3-{[(2R/S)-2-Cyclopentyl-2-{4-[5-(trifluoromethyl)pyridin-3-yl]phenyl}acetyl]amino}-2-methylphenyl)butanoic acid] | 20.3 nM
COc1ccc(-c2ccc(C(C(=O)Nc3cccc(CCC(=O)O)c3C)C3CCCC3)cc2)cn1 (racemic) [Example 18, (R/S) 3-[3-({Cyclopentyl[4-(6-methoxypyridin-3-yl)-phenyl]acetyl}amino)-2-methylphenyl]propanoic acid] | 236 nM
Cc1c(CCC(=O)O)cccc1NC(=O)C(c1ccc(-c2cncc(CC(C)C)c2)c(F)c1)C1CCC1 (single isomer, unassigned) [Example 207, 3-[3-({cyclobutyl[3-fluoro-4-(5-isobutylpyridin-3-yl)phenyl]acetyl}amino)-2-methylphenyl]propanoic acid, Single Enantiomer] | 14.1 nM
COc1cncc(-c2ccc(C(C(=O)Nc3cccc(CCC(=O)O)c3C)C3CCCC3)cc2)c1 (racemic) [Example 11, (R/S) 3-[3-({Cyclopentyl[4-(5-methoxypyridin-3-yl)phenyl]acetyl}amino)-2-methylphenyl]propanoic acid] | 341 nM
Cc1c(CCC(=O)O)cccc1NC(=O)C(c1ccc(-c2cncc(CC(F)(F)F)c2)c(F)c1)C1CCC1 (single isomer, unassigned) [Example 205, 3-{3-[(cyclobutyl{3-fluoro-4-[5-(2,2,2-trifluoroethyl)pyridin-3-yl]phenyl}acetyl)amino]-2-methylphenyl}propanoic acid, Single Enantiomer] | 66.4 nM
Cc1c(NC(=O)C(c2ccc(-c3cncc(C(F)(F)F)c3)c(F)c2)C2CCCC2)cccc1C(C)CC(=O)O (single isomer, unassigned; stereoisomer 3) [Example 118, 3-{3-[(Cyclopentyl{3-fluoro-4-[5-(trifluoromethyl)pyridin-3-yl]phenyl}acetyl)amino]-2-methylphenyl}butanoic acid, Stereoisomer 3] | 383 nM
CCc1cncc(-c2ccc(C(C(=O)Nc3cccc(C(C)CC(=O)O)c3C)C3CCCC3)cc2)c1 (mixture of isomers) [Example 92, (3R/S)-3-[3-({(2R/S)-2-Cyclopentyl-2-[4-(5-ethylpyridin-3-yl)phenyl]acetyl}amino)-2-methylphenyl]butanoic acid] | 22 nM
Cc1cncc(-c2ccc(C(C(=O)Nc3cccc(CC(C)C(=O)O)c3C)C3CCCC3)cc2)c1 (stereo not shown) [Example 81, (2R/2S)-3-[3-({(2R/2S)-2-Cyclopentyl-2-[4-(5-methylpyridin-3-yl)phenyl]acetyl}amino)-2-methylphenyl]-2-methylpropanoic acid] | 172 nM
